Assays:
[1] = tested on: mice with T10 lateral hemisection; assay: Irregular ladder walking after spinal cord T10 lateral hemisection; assay type: in vivo, mouse; settings: OPN/IGF1 treated group, T10 hemisection
Description: (§1) Injury Models. […] Briefly, a midline incision was made over the thoracic vertebrae, followed by a T10 laminectomy. The unilateral hemisection was then performed carefully using both scalpel and micro-scissors, avoiding, to the greatest extent, the damage of the spinal cord dura. The muscle layers were then sutured and the skin was secured with wound clips. All mice received post hoc histological analysis and those with spared CST axons (incomplete lateral hemisection) or with significant less CST axons on the contra-lesional side (over lateral hemisection) at the lumbar spinal cord (L3), exemplified in FIG. 9A, were excluded for behavioral analysis.
Virus and Protein Injection.
Irregular Ladder Walking. […] Briefly, the ladder was elevated 30 cm above the ground. […] To prevent animals from learning the pattern, the irregular pattern was changed from trial to trial. All trials were video recorded (Hotshot e64, 100 fps) and paw placement was analyzed twice by blinded observers. Steps with precise placement of the center of the palm on the rung (for both forelimbs and hindlimbs) and digits closed (for forelimbs) were defined as correct steps (hit). All other steps were recorded as errors, which included two types: 1) Miss: when crossing the ladder, the forelimb/hindlimb either completely miss the rung or contact the rung with the wrist/heel instead of the paw; 2) Slip: when crossing the ladder, the mice use a few digits instead of the paw to place on the rungs, causing the subsequent slip on the rungs. The results were expressed as both percentage of total errors and percentage of different placement categories (hit, miss and slip).
(§2) Pharmacological Treatment. […] All behavioral tests were then accomplished between 1-3 hours post administration.

[2] = tested on: mice with T10 lateral hemisection; assay: Ground walking and treadmill walking after T10 lateral hemisection; assay type: in vivo, mouse; settings: i.p.
Description: as §1, §2

injured mice = assay: Adverse effects of systemic potassium channel blockers in injured mice; assay type: in vivo; settings: injured mice treated with OPN/IGF1
Description: Chemicals and Antibodies. For systematic administration (i.p.), Quipazine [Sigma (Q1004), 0.2 mg/kg), SKF-82197 [Tocris (1447) 0.1 mg/kg], and 8-OH-DPAT [Tocris (0529), 0.1 mg/kg), 4AP [Sigma (275875), 1 mg/kg, 3 mg/kg), 4AP-MeOH [Santa Cruz (sc-267247), (1 mg/kg)] were dissolved in saline. Tamoxifen (Sigma, 10540-29-1) was dissolved in oil. For diphtheria toxin mediated cell ablation, we purchased the diptheria toxin from Sigma (D0564). For immunostaining, the primary antibody used were chicken anti-GFP [Abcam (Cat: ab13970)], rabbit anti-RFP [Abcam (Cat: ab34771)], rabbit anti-PKCγ [Santa Cruz (sc211)], rabbit anti-GFAP [DAKO (Z0334)]; rabbit anti-5-HT [Immunostar (20080)], rabbit-anti-IGFR [Santa Cruz (sc-712)] rabbit-anti-pIGFR[3 [Cell signaling technology (3024)], rabbit-anti-pS6 [Cell signaling technology (4857)], rat anti-CD68 [Bio-Rad (MCA 1957)], and Guinea pig-anti-Vglut1 [Synaptic Systems (135304)].
Pharmacological Treatment. […] A pilot experiment was performed and determined that 4AP (1 mg/kg, 3 mg/kg) and 4AP-MeOH (1 mg/kg) achieved their maximal effects within 1-3 hours post systematic administration (i.p.). […]

[3] = tested on: mice with unilateral photothrombotic stroke; assay: Single pellet retrieval and irregular ladder walking after unilateral photothrombotic cortical stroke; assay type: in vivo, mouse; settings: ischemic mice treated with OPN/IGF1
From the text: The procedure of unilateral photothrombotic stroke was similar to that described elsewhere (Watson et al., 1985; Wahl et al., 2014). Briefly, mice were fixed in a stereotactic frame, with the skull exposed. To unilaterally cover the sensoromotor cortex, the cold light source (Zeiss, CL 1500HAL, 3000K) was positioned over an opaque template with an opening (a circle with a diameter of 2.5 mm) centered at (−0.5, 2.0 mm, anterior and lateral to the bregma) on the cortex contralateral to the preferred paw in the food pellet retrieval task. […] Lesion volumes were calculated when mice brains were fixed at the end point of the experiments.
Irregular Ladder Walking. […] All trials were video recorded (Hotshot e64, 100 fps) and paw placement was analyzed twice by blinded observers. […] All other steps were recorded as errors, which included two types: 1) Miss: when crossing the ladder, the forelimb/hindlimb either completely miss the rung or contact the rung with the wrist/heel instead of the paw; 2) Slip: when crossing the ladder, the mice use a few digits instead of the paw to place on the rungs, causing the subsequent slip on the rungs. The results were expressed as both percentage of total errors and percentage of different placement categories (hit, miss and slip).
Single pellet Retrieval. […] The success rate was calculated as: number of successful retrievals/total attempts per trail *100. […]

## Nc1ccncc1CO [4-AP-MeOH, 4-aminopyridine-3-methanol]
[1]; 1 mg/kg i.p.
  error rate, irregular ladder walking, after 4-AP-MeOH: 30%
[1]
  error rate, irregular ladder walking, before 4-AP-MeOH: about 48%
[2]
  recovery of treadmill walking performance compared to the control: neither 4-AP nor 4-AP-MeOH had significant effects
Injured mice
  effect and safety compared to 4-AP: significantly better effects with broader safety doses
[3]
  additional effect on single pellet retrieval and irregular ladder walking: further improvements on both assays
